Measurements taken from patent US11006626B2, “Compounds for protection of cells” (Sulfateq B.V., priority 2012, dated 2021).

Tests used:
PRP platelets [1] = test: PRP platelets stored at 4° C. with Sul 136, number of cells that survived; format: cell-based; conditions: for number of cells in % relative to the number of cells at time 0: 4° C.
Experimental: […] The blood platelets with the compound were then stored at 4° C.
(§1) and tested as follows: • The color and coagulation properties were visually analysed. • The thrombocyte cells that survived were counted and it was evaluated whether the thrombocytes were aggregated. • It was evaluated if the thrombocytes still were able to function after stimulation by the addition of ADP or under influence of collagen in a 96 well plate. • The adhesion was evaluated, meaning the ability of the platelets to bind collagen in a 6 well plate preincubated with collagen. • Via an ELISA assay, it was evaluated whether thromboxane was secreted from the platelets. Thromboxane facilitates aggregation and is produced by activated blood platelets.
PRP platelets were tested with the addition of Sul 136. […] The number of cells are given in % relative to the number of cells at time 0. 66% of the platelets stored at room temperature survived after 216 hours. Only 42.3% of the cells stored at 4° C. survived after 216 hours.

PRP platelets [2] = test: PRP platelets stored with Sul 136, aggregation after stimulation with collagen; format: cell-based; design: key: +means that the cells show aggregation and can thus be activated upon stimulation; −means no aggregation upon stimulation
Experimental: as §1, with “and tested as follows:” left out
(+means that the cells show aggregation, ++means strong aggregation, these platelets can thus be activated upon stimulation, −means no aggregation upon stimulation)

SMILES: Cc1c(C)c2c(c(C)c1O)CCC(C)(C(=O)N1CCN(CC(=O)O)CC1)O2 (racemic) [SUL - 136, 2-(4-(6-hydroxy-2,5,7,8-tetramethylchroman-2-carbonyl)piperazin-1-yl)acetic acid]
- number of cells in % relative to the number of cells at time 0 (PRP platelets [1]; 10 min 0.001 mM, 0 h): 100%
- number of cells in % relative to the number of cells at time 0 (PRP platelets [1]; 10 min 0.001 mM, 72 h): 58.9%
- number of cells in % relative to the number of cells at time 0 (PRP platelets [1]; 10 min 0.001 mM, 216 h): 55.1%
- number of cells in % relative to the number of cells at time 0 (PRP platelets [1]; 10 min 0.01 mM, 0 h): 100%
- number of cells in % relative to the number of cells at time 0 (PRP platelets [1]; 10 min 0.01 mM, 72 h): 66.0%
- number of cells in % relative to the number of cells at time 0 (PRP platelets [1]; 10 min 0.01 mM, 216 h): 52.1%
- number of cells in % relative to the number of cells at time 0 (PRP platelets [1]; 10 min 0.1 mM, 0 h): 100%
- number of cells in % relative to the number of cells at time 0 (PRP platelets [1]; 10 min 0.1 mM, 72 h): 55.9%
- number of cells in % relative to the number of cells at time 0 (PRP platelets [1]; 10 min 0.1 mM, 216 h): 50.8%
- number of cells in % relative to the number of cells at time 0 (PRP platelets [1]; 10 min 1 mM, 0 h): 100%
- number of cells in % relative to the number of cells at time 0 (PRP platelets [1]; 10 min 1 mM, 72 h): 59.1%
- number of cells in % relative to the number of cells at time 0 (PRP platelets [1]; 10 min 1 mM, 216 h): 59.3%
- number of cells in % relative to the number of cells at time 0 (PRP platelets [1]; 10 min 10 mM, 0 h): 100%
- number of cells in % relative to the number of cells at time 0 (PRP platelets [1]; 10 min 10 mM, 72 h): 64.8%
- number of cells in % relative to the number of cells at time 0 (PRP platelets [1]; 10 min 10 mM, 216 h): 47.9%
- number of cells in % relative to the number of cells at time 0 (PRP platelets [1]; 60 min 0.001 mM, 0 h): 100%
- number of cells in % relative to the number of cells at time 0 (PRP platelets [1]; 60 min 0.001 mM, 72 h): 83.8%
- number of cells in % relative to the number of cells at time 0 (PRP platelets [1]; 60 min 0.001 mM, 216 h): 86.1%
- number of cells in % relative to the number of cells at time 0 (PRP platelets [1]; 60 min 0.01 mM, 0 h): 100%
- number of cells in % relative to the number of cells at time 0 (PRP platelets [1]; 60 min 0.01 mM, 72 h): 82.9%
- number of cells in % relative to the number of cells at time 0 (PRP platelets [1]; 60 min 0.01 mM, 216 h): 94.8%
- number of cells in % relative to the number of cells at time 0 (PRP platelets [1]; 60 min 0.1 mM, 0 h): 100%
- number of cells in % relative to the number of cells at time 0 (PRP platelets [1]; 60 min 0.1 mM, 72 h): 76.3%
- number of cells in % relative to the number of cells at time 0 (PRP platelets [1]; 60 min 0.1 mM, 216 h): 77.6%
- number of cells in % relative to the number of cells at time 0 (PRP platelets [1]; 60 min 1 mM, 0 h): 100%
- number of cells in % relative to the number of cells at time 0 (PRP platelets [1]; 60 min 1 mM, 72 h): 29.9%
- number of cells in % relative to the number of cells at time 0 (PRP platelets [1]; 60 min 1 mM, 216 h): 62.9%
- number of cells in % relative to the number of cells at time 0 (PRP platelets [1]; 60 min 10 mM, 0 h): 100%
- number of cells in % relative to the number of cells at time 0 (PRP platelets [1]; 60 min 10 mM, 72 h): 51.8%
- number of cells in % relative to the number of cells at time 0 (PRP platelets [1]; 60 min 10 mM, 216 h): 43.4%
- platelets survived after storage (PRP platelets [1]; storage of 72 and 216 hours at 4° C., vs. no compound): substantial more platelets survived
- aggregation of the PRP platelets after stimulation with collagen (PRP platelets [2]; 10 min 0.001 mM, 24 h): −
- aggregation of the PRP platelets after stimulation with collagen (PRP platelets [2]; 10 min 0.001 mM, 48 h): −
- aggregation of the PRP platelets after stimulation with collagen (PRP platelets [2]; 10 min 0.001 mM, 72 h): −
- aggregation of the PRP platelets after stimulation with collagen (PRP platelets [2]; 10 min 0.001 mM, 216 h): −
- aggregation of the PRP platelets after stimulation with collagen (PRP platelets [2]; 10 min 0.01 mM, 24 h): −
- aggregation of the PRP platelets after stimulation with collagen (PRP platelets [2]; 10 min 0.01 mM, 48 h): −
- aggregation of the PRP platelets after stimulation with collagen (PRP platelets [2]; 10 min 0.01 mM, 72 h): −
- aggregation of the PRP platelets after stimulation with collagen (PRP platelets [2]; 10 min 0.01 mM, 216 h): −
- aggregation of the PRP platelets after stimulation with collagen (PRP platelets [2]; 10 min 0.1 mM, 48 h): −
- aggregation of the PRP platelets after stimulation with collagen (PRP platelets [2]; 10 min 0.1 mM, 72 h): −
- aggregation of the PRP platelets after stimulation with collagen (PRP platelets [2]; 10 min 0.1 mM, 216 h): −
- aggregation of the PRP platelets after stimulation with collagen (PRP platelets [2]; 10 min 1 mM, 48 h): −
- aggregation of the PRP platelets after stimulation with collagen (PRP platelets [2]; 60 min 0.001 mM, 24 h): −
- aggregation of the PRP platelets after stimulation with collagen (PRP platelets [2]; 60 min 0.001 mM, 48 h): −
- aggregation of the PRP platelets after stimulation with collagen (PRP platelets [2]; 60 min 0.001 mM, 72 h): −
- aggregation of the PRP platelets after stimulation with collagen (PRP platelets [2]; 60 min 0.001 mM, 216 h): −
- aggregation of the PRP platelets after stimulation with collagen (PRP platelets [2]; 60 min 0.01 mM, 24 h): −
- aggregation of the PRP platelets after stimulation with collagen (PRP platelets [2]; 60 min 0.01 mM, 48 h): −
- aggregation of the PRP platelets after stimulation with collagen (PRP platelets [2]; 60 min 0.01 mM, 72 h): −
- aggregation of the PRP platelets after stimulation with collagen (PRP platelets [2]; 60 min 0.01 mM, 216 h): −
- aggregation of the PRP platelets after stimulation with collagen (PRP platelets [2]; 60 min 0.1 mM, 24 h): −
- aggregation of the PRP platelets after stimulation with collagen (PRP platelets [2]; 60 min 0.1 mM, 48 h): −
- aggregation of the PRP platelets after stimulation with collagen (PRP platelets [2]; 60 min 0.1 mM, 72 h): −
- aggregation of the PRP platelets after stimulation with collagen (PRP platelets [2]; 60 min 0.1 mM, 216 h): −
- aggregation of the PRP platelets after stimulation with collagen (PRP platelets [2]; 60 min 1 mM, 24 h): −
- aggregation of the PRP platelets after stimulation with collagen (PRP platelets [2]; 60 min 1 mM, 48 h): −
- aggregation of the PRP platelets after stimulation with collagen (PRP platelets [2]; 60 min 1 mM, 72 h): −
- aggregation of the PRP platelets after stimulation with collagen (PRP platelets [2]; 60 min 10 mM, 216 h): −
